# Reference: patent US10428087B2, “Pyrimidinones as PI3K inhibitors” (Incyte Corporation, priority 2009, dated 2019)
# Where a name gives a salt, the structure may show the parent alone.
# Key:
# B cells = assay: B cell proliferation assay (Example B1); format: cell-based; conditions: B-cell; purified human B cells, anti-human IgM, [3H]-thymidine
# Experimental: To acquire B cells, human PBMC were isolated from the peripheral blood of normal, drug free donors by standard density gradient centrifugation on Ficoll-Hypague (GE Healthcare, Piscataway, N.J.) and incubated with anti-CD19 microbeads (Miltenyi Biotech, Auburn, Calif.). The B cells were then purified by positive immunosorting using an autoMacs (Miltenyi Biotech) according to the manufacturer's instruction.
# The purified B cells (2×10^5/well/200 μL) were cultured in 96-well ultra-low binding plates (Corning, Corning, N.Y.) in RPMI1640, 10% FBS and goat F(ab′)2 anti-human IgM ([…]) (Invitrogen, Carlsbad, Calif.), in the presence of different amount of test compounds, […] [^3H]-thymidine (1 μCi/well) (PerkinElmer, Boston, Mass.) in PBS was then added to the B cell cultures for an additional 12 hrs before the incorporated radioactivity was separated by filtration with water through GF/B filters (Packard Bioscience, Meriden, Conn.) and measured by liquid scintillation counting with a TopCount (Packard Bioscience). […] See Table 2 for data related to compounds of the invention.
# [1] = system: Pfeiffer cell line (diffuse large B cell lymphoma); assay: Pfeiffer cell proliferation assay (Example B2); format: cell-based; conditions: Homo sapiens, Pfeiffer, Pfeiffer cells, [3H]-thymidine
# Experimental: Pfeiffer cell line (diffuse large B cell lymphoma) was purchased from ATCC (Manassas, Va.) and maintained in the culture medium recommended (RPMI and 10% FBS). To measure the anti-proliferation activity of the PI3Kδ submittals, the Pfeiffer cells were plated with the culture medium (2×10^3 cells/well/per 200 μl) into 96-well ultra-low binding plates (Corning, Corning, N.Y.), in the presence or absence of a concentration range of test compounds. After 3-4 days, [^3H]-thymidine (1 μCi/well) (PerkinElmer, Boston, Mass.) in PBS was then added to the cell culture for an additional 12 hrs before the incorporated radioactivity was separated by filtration with water through GF/B filters (Packard Bioscience, Meridenj, Conn.) and measured by liquid scintillation counting with a TopCount (Packard Bioscience). See Table 3 for data related to compounds of the invention.
Structure (SMILES),IC50 [1] [nM],IC50 (B cells) [nM]
"Cc1cccc2nc(C(C)Nc3ncnc4[nH]cnc34)c(-c3cccc(F)c3)c(=O)n12 (single isomer, unassigned) [Example 71, 3-(3-Fluorophenyl)-6-methyl-2-[1-(9H-purin-6-ylamino)ethyl]-4H-pyrido[1,2-a]pyrimidin-4-one trifluoroacetic acid salt]",,< 50
"Cc1cccc2nc(C(C)n3cnc4c(N)ncnc43)c(-c3ccccc3)c(=O)n12 (centres unmarked) [Example 1, 2-[1-(6-amino-9H-purin-9-yl)ethyl]-6-methyl-3-phenyl-4H-pyrido[1,2-a]pyrimidin-4-one]",100 to 500,< 50
"CCC(Nc1ncnc2[nH]cnc12)c1nc2cccc(C)n2c(=O)c1-c1ccccc1 (centres unmarked) [Example 2, 6-methyl-3-phenyl-2-[1-(9H-purin-6-ylamino)propyl]-4H-pyrido[1,2-a]pyrimidin-4-one]",< 50,100 to 500
"CCC(Nc1ncnc2[nH]cnc12)c1nc2cccc(C)n2c(=O)c1-c1cncc(F)c1 (centres unmarked) [Example 3, 3-(5-fluoropyridin-3-yl)-6-methyl-2-[1-(9H-purin-6-ylamino)propyl]-4H-pyrido[1,2-a]pyrimidin-4-one]",100 to 500,< 50
"CCC(Nc1ncnc2[nH]cnc12)c1nc2cccc(C)n2c(=O)c1-c1cccc(F)c1 (centres unmarked) [Example 4, 3-(3-fluorophenyl)-6-methyl-2-[1-(9H-purin-6-ylamino)propyl]-4H-pyrido[1,2-a]pyrimidin-4-one]",100 to 500,< 50
"CCC(Nc1ncnc2[nH]cnc12)c1nc2cccc(C)n2c(=O)c1-c1cccnc1F (centres unmarked) [Example 6, 3-(2-fluoropyridin-3-yl)-6-methyl-2-[1-(9H-purin-6-ylamino)propyl]-4H-pyrido[1,2-a]pyrimidin-4-one]",100 to 500,50 to 100
"CCC(Nc1ncnc2[nH]cnc12)c1nc2cccc(C)n2c(=O)c1-c1cn[nH]c1 (centres unmarked) [Example 7, 6-methyl-2-[1-(9H-purin-6-ylamino)propyl]-3-(1H-pyrazol-4-yl)-4H-pyrido[1,2-a]pyrimidin-4-one]",500 to 1000,> 500
"Cc1csc2nc(C(C)Nc3nc(N)nc4[nH]cnc34)c(-c3cc(F)cc(F)c3)c(=O)n12 (centres unmarked) [Example 13, 7-{1-[(2-amino-9H-purin-6-yl)amino]ethyl}-6-(3,5-difluorophenyl)-3-methyl-5H-[1,3]thiazolo[3,2-a]pyrimidin-5-one]",,< 50
"Cc1csc2nc([C@H](C)Nc3ncnc4[nH]cnc34)c(-c3cccc(F)c3)c(=O)n12 [Example 15, (S)-7-(1-(9H-purin-6-ylamino)ethyl)-6-(3-fluorophenyl)-3-methyl-5H-thiazolo[3,2-a]pyrimidin-5-one]",,< 50
"Cc1cccc2nc(C(C)Nc3nc(N)nc4[nH]cnc34)c(-c3ccccc3Cl)c(=O)n12 (centres unmarked) [Example 58, 2-{1-[(2-Amino-9H-purin-6-yl)amino]ethyl}-3-(2-chlorophenyl)-6-methyl-4H-pyrido[1,2-a]pyrimidin-4-one trifluoroacetic acid salt]",< 50,
"Cc1cccc2nc(C(C)Nc3nc(N)nc4[nH]cnc34)c(-c3ccccc3F)c(=O)n12 (centres unmarked) [Example 60, 2-{1-[(2-Amino-9H-purin-6-yl)amino]ethyl}-3-(2-fluorophenyl)-6-methyl-4H-pyrido[1,2-a]pyrimidin-4-one trifluoroacetic acid salt]",50 to 100,
"Cc1cccc2nc(C(C)Nc3nc(N)nc4[nH]cnc34)c(-c3ccc(C#N)cc3)c(=O)n12 (centres unmarked) [Example 62, 4-(2-{1-[(2-Amino-9H-purin-6-yl)amino]ethyl}-6-methyl-4-oxo-4H-pyrido[1,2-a]pyrimidin-3-yl)benzonitrile trifluoroacetic acid salt]",500 to 1000,
"CCc1cccc2nc(C(C)Nc3nc(N)nc4[nH]cnc34)c(-c3cc(F)cc(F)c3)c(=O)n12 (centres unmarked) [Example 77, 2-{1-[(2-Amino-9H-purin-6-yl)amino]ethyl}-3-(3,5-difluorophenyl)-6-ethyl-4H-pyrido[1,2-a]pyrimidin-4-one trifluoroacetic acid salt]",< 50,
"CCc1cccc2nc(C(C)Nc3ncnc4[nH]cnc34)c(-c3ccc(F)cc3)c(=O)n12 (centres unmarked) [Example 78, 6-Ethyl-3-(4-fluorophenyl)-2-[1-(9H-purin-6-ylamino)ethyl]-4H-pyrido[1,2-a]pyrimidin-4-one trifluoroacetic acid salt]",100 to 500,
"CC(Nc1nc(N)nc2[nH]cnc12)c1nc2ccccn2c(=O)c1-c1cc(F)cc(F)c1 (centres unmarked) [Example 80, 2-{1-[(2-Amino-9H-purin-6-yl)amino]ethyl}-3-(3,5-difluorophenyl)-4H-pyrido[1,2-a]pyrimidin-4-one trifluoroacetic acid salt]",100 to 500,
"Cc1cccc2nc(C(C)Nc3nc(N)nc4[nH]cnc34)c(-c3cccc(C#N)c3)c(=O)n12 (centres unmarked) [Example 84, 3-(2-{1-[(2-Amino-9H-purin-6-yl)amino]ethyl}-6-methyl-4-oxo-4H-pyrido[1,2-a]pyrimidin-3-yl)benzonitrile trifluoroacetic acid salt]",100 to 500,

# The next lines start with results.
IC50 [1] [nM],Structure (SMILES),IC50 (B cells) [nM]
50 to 100,"CCC(Nc1ncnc2[nH]cnc12)c1nc2cccc(C)n2c(=O)c1-c1cc(F)cc(F)c1 (centres unmarked) [Example 5, 3-(3,5-difluorophenyl)-6-methyl-2-[1-(9H-purin-6-ylamino)propyl]-4H-pyrido[1,2-a]pyrimidin-4-one]",< 50
50 to 100,"Cc1cccc2nc(C(C)Nc3ncnc4[nH]cnc34)c(-c3ccccc3Cl)c(=O)n12 (centres unmarked) [Example 57, 3-(2-Chlorophenyl)-6-methyl-2-[1-(9H-purin-6-ylamino)ethyl]-4H-pyrido[1,2-a]pyrimidin-4-one trifluoroacetic acid salt]",
100 to 500,"Cc1cccc2nc(C(C)Nc3ncnc4[nH]cnc34)c(-c3ccccc3F)c(=O)n12 (centres unmarked) [Example 59, 3-(2-Fluorophenyl)-6-methyl-2-[1-(9H-purin-6-ylamino)ethyl]-4H-pyrido[1,2-a]pyrimidin-4-one trifluoroacetic acid salt]",
100 to 500,"Cc1ccccc1-c1c(C(C)Nc2ncnc3[nH]cnc23)nc2cccc(C)n2c1=O (centres unmarked) [Example 63, 6-Methyl-3-(2-methylphenyl)-2-[1-(9H-purin-6-ylamino)ethyl]-4H-pyrido[1,2-a]pyrimidin-4-one trifluoroacetic acid salt]",
50 to 100,"Cc1ccc(-c2c(C(C)Nc3ncnc4[nH]cnc34)nc3cccc(C)n3c2=O)cc1 (centres unmarked) [Example 64, 6-Methyl-3-(4-methylphenyl)-2-[1-(9H-purin-6-ylamino)ethyl]-4H-pyrido[1,2-a]pyrimidin-4-one trifluoroacetic acid salt]",
50 to 100,"COc1cccc(-c2c(C(C)Nc3ncnc4[nH]cnc34)nc3cccc(C)n3c2=O)c1 (centres unmarked) [Example 65, 3-(3-Methoxyphenyl)-6-methyl-2-[1-(9H-purin-6-ylamino)ethyl]-4H-pyrido[1,2-a]pyrimidin-4-one trifluoroacetic acid salt]",
100 to 500,"Cc1cccc2nc(C(C)Nc3ncnc4[nH]cnc34)c(-c3cccc(F)c3F)c(=O)n12 (centres unmarked) [Example 66, 3-(2,3-Difluorophenyl)-6-methyl-2-[1-(9H-purin-6-ylamino)ethyl]-4H-pyrido[1,2-a]pyrimidin-4-one trifluoroacetic acid salt]",
50 to 100,"Cc1cccc2nc(C(C)Nc3ncnc4[nH]cnc34)c(-c3cc(F)ccc3F)c(=O)n12 (centres unmarked) [Example 67, 3-(2,5-Difluorophenyl)-6-methyl-2-[1-(9H-purin-6-ylamino)ethyl]-4H-pyrido[1,2-a]pyrimidin-4-one trifluoroacetic acid salt]",
500 to 1000,"Cc1cccc2nc(C(C)Nc3ncnc4[nH]cnc34)c(-c3ccc(F)c(F)c3)c(=O)n12 (centres unmarked) [Example 68, 3-(3,4-Difluorophenyl)-6-methyl-2-[1-(9H-purin-6-ylamino)ethyl]-4H-pyrido[1,2-a]pyrimidin-4-one trifluoroacetic acid salt]",
50 to 100,"Cc1cccc2nc(C(C)Nc3ncnc4[nH]cnc34)c(-c3cc(F)cc(F)c3)c(=O)n12 (centres unmarked) [Example 69, 3-(3,5-Difluorophenyl)-6-methyl-2-[1-(9H-purin-6-ylamino)ethyl]-4H-pyrido[1,2-a]pyrimidin-4-one trifluoroacetic acid salt]",
100 to 500,"CCc1cccc2nc(C(C)Nc3ncnc4[nH]cnc34)c(-c3cc(F)cc(F)c3)c(=O)n12 (centres unmarked) [Example 76, 3-(3,5-Difluorophenyl)-6-ethyl-2-[1-(9H-purin-6-ylamino)ethyl]-4H-pyrido[1,2-a]pyrimidin-4-one trifluoroacetic acid salt]",
100 to 500,"Cc1cccc2nc(C(C)Nc3ncnc4[nH]cnc34)c(-c3cccc(C#N)c3)c(=O)n12 (centres unmarked) [Example 83, 3-{6-Methyl-4-oxo-2-[1-(9H-purin-6-ylamino)ethyl]-4H-pyrido[1,2-a]pyrimidin-3-yl}benzonitrile trifluoroacetic acid salt]",
